# Measured values: patent US20160222056A1, “SUBSTITUTED PHENYLALANINE DERIVATIVES” (BAYER PHARMA AKTIENGESELLSCHAFT, priority 2013, published 2016)
# Where a name gives a salt, the structure may show the parent alone.
# Experiments:
# Assay type in all cases: biochemical
# [1] = test system: human and animal plasma; assay: Anticoagulatory activity: activated partial thromboplastin time (aPTT) in plasma; settings: in vitro in plasma, C.K. Prest kit, 37° C. for 3 minutes; plasma species of Table B not stated
# Procedure: The anticoagulatory activity of the test substances is determined in vitro in human and animal plasma (for example mouse, rat, rabbit, pig and dog plasma). To this end, blood is drawn off in a mixing ratio of sodium citrate/blood of 1:9 using a 0.11 molar sodium citrate solution as receiver. Immediately after the blood has been drawn off, it is mixed thoroughly and centrifuged at about 4000 g for 15 minutes. The supernatant is pipetted off.
# The activated partial thromboplastin time (aPTT) is determined in the presence of varying concentrations of test substance or the corresponding solvent using a commercial test kit (C.K. Prest from Diagnostica Stago). The test compounds are incubated with the plasma and the PTT reagent (cephalin, kaolin) at 37° C. for 3 minutes. Coagulation is then started by addition of 25 mM aqueous calcium chloride, and the time when coagulation occurs is determined. The concentration of test substance which brings about a 1.5-fold extension of the aPTT is determined.
# [2] = molecular target: T1, human plasmin (Homo sapiens, UniProt P00747); assay: Measurement of plasmin inhibition (fluorogenic peptide substrate); settings: plasmin from Kordia, substrate MeOSuc-Ala-Phe-Lys-AMC, 30 min at 22° C.
# T1 construct: purchased Kordia
# T1 sequence (P00747 581-810 limits assumed): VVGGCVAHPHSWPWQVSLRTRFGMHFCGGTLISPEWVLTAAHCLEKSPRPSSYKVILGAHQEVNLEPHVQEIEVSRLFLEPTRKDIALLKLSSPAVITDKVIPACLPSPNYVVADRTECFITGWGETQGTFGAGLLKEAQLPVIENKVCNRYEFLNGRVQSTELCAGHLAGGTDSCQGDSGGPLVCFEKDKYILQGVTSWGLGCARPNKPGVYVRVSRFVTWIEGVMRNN
# T1 sequence (P00747 97-580 partner limits assumed): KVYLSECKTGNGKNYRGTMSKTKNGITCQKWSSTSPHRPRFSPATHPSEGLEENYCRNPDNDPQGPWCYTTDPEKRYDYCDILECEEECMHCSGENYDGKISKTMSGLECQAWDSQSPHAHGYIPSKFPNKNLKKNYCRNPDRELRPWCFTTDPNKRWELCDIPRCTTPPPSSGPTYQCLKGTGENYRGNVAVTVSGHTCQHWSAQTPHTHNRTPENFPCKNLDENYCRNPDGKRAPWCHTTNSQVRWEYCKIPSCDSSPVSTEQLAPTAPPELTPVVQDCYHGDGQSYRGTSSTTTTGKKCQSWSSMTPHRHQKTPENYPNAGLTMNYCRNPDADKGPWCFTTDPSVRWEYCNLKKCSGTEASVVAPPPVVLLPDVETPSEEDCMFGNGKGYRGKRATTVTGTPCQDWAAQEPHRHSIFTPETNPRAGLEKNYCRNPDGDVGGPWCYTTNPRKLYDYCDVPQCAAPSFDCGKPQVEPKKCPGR
# Procedure: (§1) The plasmin inhibition of the inventive substances is determined using a biochemical test system which utilizes the reaction of a peptidic plasmin substrate to determine the enzymatic activity of human plasmin. Here, plasmin cleaves from the peptic plasmin substrate the C-terminal aminomethylcoumarin (AMC), the fluorescence of which is measured. The determinations are carried out in microtitre plates.
# (§2) Test substances are dissolved in dimethyl sulphoxide and serially diluted in dimethyl sulphoxide (3000 μM to 0.0078 μM; resulting final concentrations in the test: 50 μM to 0.00013 μM). In each case 1 μl of the diluted substance solutions are placed into the wells of white microtitre plates from Greiner (384 wells). Subsequently, the following are added successively: 20 μl of assay buffer (50 mmol/1 Tris buffer pH 7.4; 100 mmol/1 sodium chloride; 5 mmol/1 calcium chloride; 0.1% bovine serum albumin) and 20 μl of plasmin from Kordia (0.3 μg/ml in assay buffer). After 15 min of incubation, the enzyme reaction is started by addition of 20 μl of the plasmin substrate MeOSuc-Ala-Phe-Lys-AMC dissolved in assay buffer (150 μM in assay buffer) from Bachem, the mixture is incubated at room temperature (22° C.) for 30 min and fluorescence is then measured (excitation: 360 nm, emission: 460 nm). The measured emissions of the test batches with test substance are compared to those of control batches without test substance (only dimethyl sulphoxide instead of test substance in dimethyl sulphoxide), and the IC50 values are calculated from the concentration/activity relationships.
# [3] = molecular target: T2, human factor XIa (Homo sapiens, UniProt P03951); assay: Measurement of FXIa inhibition (fluorogenic peptide substrate); settings: human factor XIa from Kordia, substrate Boc-Glu(OBzl)-Ala-Arg-AMC, 30 min at 22° C.; read-out: IC50 (FXIa inhibition)
# T2 construct: purchased Kordia
# T2 sequence (P03951 388-625 limits assumed): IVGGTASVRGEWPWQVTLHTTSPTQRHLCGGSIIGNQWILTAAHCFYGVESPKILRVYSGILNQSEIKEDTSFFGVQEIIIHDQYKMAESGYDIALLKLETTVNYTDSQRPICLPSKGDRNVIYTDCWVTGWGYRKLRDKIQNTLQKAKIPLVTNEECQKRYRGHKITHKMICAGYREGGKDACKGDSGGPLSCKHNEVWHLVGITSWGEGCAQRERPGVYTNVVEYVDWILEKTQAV
# T2 sequence (P03951 19-387 partner limits assumed): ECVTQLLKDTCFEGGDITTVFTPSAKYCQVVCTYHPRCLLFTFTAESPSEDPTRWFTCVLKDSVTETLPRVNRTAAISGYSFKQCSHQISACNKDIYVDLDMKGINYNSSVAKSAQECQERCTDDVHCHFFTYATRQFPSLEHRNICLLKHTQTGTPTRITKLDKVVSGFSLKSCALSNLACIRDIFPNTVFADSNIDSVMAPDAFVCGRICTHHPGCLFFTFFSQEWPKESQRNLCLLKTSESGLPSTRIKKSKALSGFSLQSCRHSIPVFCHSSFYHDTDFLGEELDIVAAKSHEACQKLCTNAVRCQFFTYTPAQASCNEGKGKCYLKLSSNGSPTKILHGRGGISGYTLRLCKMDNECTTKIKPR
# Procedure: as §1, with “To determine the factor XIa” for “The plasmin”, “the” for “the inventive”, “according to the invention,” for “is determined using”, “system is used” for “system”, “factor XIa” for “plasmin”, “factor XIa.” for “plasmin.”
# as §2, with “factor XIa” for “plasmin”, “(0.45 nM” for “(0.3 μg/ml”, “Boc-Glu(OBzl)-Ala-Arg-AMC” for “MeOSuc-Ala-Phe-Lys-AMC”, “(10” for “(150”
Structure (SMILES),IC50 [2] [nM],IC50 [3] [nM],aPTT (concentration of test substance which brings about a 1.5-fold extension of the aPTT) [1] [µmol/L]
"Cc1nc(C(=O)N[C@H](C)CO)ccc1-c1ccc(C[C@H](NC(=O)[C@H]2CC[C@H](CN)CC2)C(=O)Nc2ccc(-c3nn[nH]n3)cc2)cc1 [Example 29, N-alpha-{[trans-4-(Aminomethyl)cyclohexyl]carbonyl}-4-(6-{[(2R)-1-hydroxypropan-2-yl]carbamoyl}-2-methylpyridin-3-yl)-N-[4-(2H-tetrazol-5-yl)phenyl]-L-phenylalaninamide hydrochloride]",10,2.4,
"Cc1cc(C(=O)N2CCN(C)CC2)ncc1-c1ccc(C[C@H](NC(=O)[C@H]2CC[C@H](CN)CC2)C(=O)Nc2ccc(-c3nnn[nH]3)cc2)cc1 [Example 33, N-alpha-{[trans-4-(Aminomethyl)cyclohexyl]carbonyl}-4-{4-methyl-6-[(4-methylpiperazin-1-yl)carbonyl]pyridin-3-yl}-N-[4-(1H-tetrazol-5-yl)phenyl]-L-phenylalaninamide hydrochloride]",,4.2,0.44
"Cc1nc(C(=O)NC(C)C(F)(F)F)ccc1-c1ccc(C[C@H](NC(=O)[C@H]2CC[C@H](CN)CC2)C(=O)Nc2ccc3cn[nH]c3c2)cc1 (stereo partly drawn) [Example 35, N-alpha-{[trans-4-(Aminomethyl)cyclohexyl]carbonyl}-N-1H-indazol-6-yl-4-{2-methyl-6-[(1,1,1-trifluoropropan-2-yl)carbamoyl]pyridin-3-yl}-L-phenylalaninamide hydrochloride]",1.1,8.7,0.49
"Cc1nc(C(=O)NC(C)C(F)(F)F)ccc1-c1ccc(C[C@H](NC(=O)[C@H]2CC[C@H](CN)CC2)C(=O)Nc2ccc3[nH]c(=O)[nH]c3c2)cc1 (stereo partly drawn) [Example 36, N-alpha-{[trans-4-(Aminomethyl)cyclohexyl]carbonyl}-4-{2-methyl-6-[(1,1,1-trifluoropropan-2-yl)carbamoyl]pyridin-3-yl}-N-(2-oxo-2,3-dihydro-1H-benzimidazol-5-yl)-L-phenylalaninamide hydrochloride]",1.2,11,0.21
"Cc1nc(C(=O)NC(C)C)ccc1-c1ccc(C[C@H](NC(=O)[C@H]2CC[C@H](CN)CC2)C(=O)Nc2ccc3[nH]c(=O)[nH]c3c2)cc1 [Example 40, N-alpha-{[trans-4-(Aminomethyl)cyclohexyl]carbonyl}-4-[6-(isopropylcarbamoyl)-2-methylpyridin-3-yl]-N-(2-oxo-2,3-dihydro-1H-benzimidazol-5-yl)-L-phenylalaninamide hydrochloride]",1.8,15.5,

# The next lines start with results.
IC50 [2] [nM],IC50 [3] [nM],Structure (SMILES),aPTT (concentration of test substance which brings about a 1.5-fold extension of the aPTT) [1] [µmol/L]
4.5,2.5,"Cc1cc(C(=O)Nc2ccn(C)n2)ncc1-c1ccc(C[C@H](NC(=O)[C@H]2CC[C@H](CN)CC2)C(=O)Nc2ccc(-c3nnn[nH]3)cc2)cc1 [Example 23, N-alpha-{[trans-4-(Aminomethyl)cyclohexyl]carbonyl}-4-{4-methyl-6-[(1-methyl-1H-pyrazol-3-yl)carbamoyl]pyridin-3-yl}-N-[4-(1H-tetrazol-5-yl)phenyl]-L-phenylalaninamide hydrochloride]",0.17
0.9,8.2,"Cc1nc(C(=O)NC2CCC2)ccc1-c1ccc(C[C@H](NC(=O)[C@H]2CC[C@H](CN)CC2)C(=O)Nc2ccc3cn[nH]c3c2)cc1 [Example 34, N-alpha-{[trans-4-(Aminomethyl)cyclohexyl]carbonyl}-4-[6-(cyclobutylcarbamoyl)-2-methylpyridin-3-yl]-N-1H-indazol-6-yl-L-phenylalaninamide hydrochloride]",0.41
1.5,13,"Cc1nc(C(=O)NC2CCC2)ccc1-c1ccc(C[C@H](NC(=O)[C@H]2CC[C@H](CN)CC2)C(=O)Nc2ccc3[nH]c(=O)[nH]c3c2)cc1 [Example 37, N-alpha-{[trans-4-(Aminomethyl)cyclohexyl]carbonyl}-4-[6-(cyclobutylcarbamoyl)-2-methylpyridin-3-yl]-N-(2-oxo-2,3-dihydro-1H-benzimidazol-5-yl)-L-phenylalaninamide hydrochloride]",0.2
0.8,14,"Cc1nc(C(=O)NC(C)C)ccc1-c1ccc(C[C@H](NC(=O)[C@H]2CC[C@H](CN)CC2)C(=O)Nc2cc(Cl)c3oc(=O)[nH]c3c2)cc1 [Example 38, N-alpha-{[trans-4-(Aminomethyl)cyclohexyl]carbonyl}-N-(7-chloro-2-oxo-2,3-dihydro-1,3-benzoxazol-5-yl)-4-[6-(isopropylcarbamoyl)-2-methylpyridin-3-yl]-L-phenylalaninamide hydrochloride]",0.99
1.2,4.3,"Cc1nc(C(=O)NC(C)C)ccc1-c1ccc(C[C@H](NC(=O)[C@H]2CC[C@H](CN)CC2)C(=O)Nc2ccc3c(=O)[nH][nH]c3c2)cc1 [Example 39, N-alpha-{[trans-4-(Aminomethyl)cyclohexyl]carbonyl}-4-[6-(isopropylcarbamoyl)-2-methylpyridin-3-yl]-N-(3-oxo-2,3-dihydro-1H-indazol-6-yl)-L-phenylalaninamide hydrochloride]",0.27
